# Target: PI3Kδ (Homo sapiens (Human), UniProt O00329)
# Assay: PI3K Enzyme Assay (Example A2), [γ-33P]ATP filter plate
# Assay type: biochemical
# Method: Example A2: PI3K Enzyme Assay
# Lipid kinase substrate, phosphoinositol-4,5-bisphosphate (PIP2), are purchased from Echelon Biosciences (Salt Lake City, Utah). PI3K isoforms α, β, δ and γ are purchased from Millipore (Bedford, Mass.). ATP, MgCl2, DTT, EDTA, MOPS and CHAPS are purchased from Sigma-Aldrich (St. Louis, Mo.).
# The kinase reaction are conducted in clear-bottom 96-well plate from Thermo Fisher Scientific in a final volume of 24 μL. Inhibitors are first diluted serially in DMSO and added to the plate wells before the addition of other reaction components. The final concentration of DMSO in the assay is 0.5%. The PI3K assays are carried out at room temperature in 20 mM MOPS, pH 6.7, 10 mM MgCl2, 5 mM DTT and CHAPS 0.03%. The reaction mixture is prepared containing 50 µM PIP2, kinase and varying concentration of inhibitors. Reactions are initiated by the addition of ATP containing 2.2 μCi [γ-^33P]ATP to a final concentration of 1000 μM. The final concentration of PI3K isoforms α, β, δ and γ in the assay were 1.3, 9.4, 2.9 and 10.8 nM, respectively. Reactions are incubated for 180 minutes and terminated by the addition of 100 μL of 1 M potassium phosphate pH 8.0, 30 mM EDTA quench buffer. A 100 μL aliquot of the reaction solution are then transferred to 96-well Millipore MultiScreen IP […] PVDF filter plate (The filter plate is prewetted with 200 μL 100% ethanol, distilled water, and 1 M potassium phosphate pH 8.0, respectively). The filter plate is aspirated on a Millipore Manifold under vacuum and washed with 18×200 μL wash buffer containing 1 M potassium phosphate pH 8.0 and 1 mM ATP. After drying by aspiration and blotting, the plate is air dried in an incubator at 37° C. overnight. Packard TopCount adapter (Millipore) is then attached to the plate followed with addition of 120 μL Microscint 20 scintillation cocktail (Perkin Elmer) in each well. After the plate sealing, the radioactivity of the product is determined by scintillation counting on Topcount (Perkin-Elmer). IC50 determination is performed by fitting the curve of percent control activity versus the log of the inhibitor concentration using the GraphPad Prism 3.0 software.
# Chain of PI3Kδ (O00329 whole entry): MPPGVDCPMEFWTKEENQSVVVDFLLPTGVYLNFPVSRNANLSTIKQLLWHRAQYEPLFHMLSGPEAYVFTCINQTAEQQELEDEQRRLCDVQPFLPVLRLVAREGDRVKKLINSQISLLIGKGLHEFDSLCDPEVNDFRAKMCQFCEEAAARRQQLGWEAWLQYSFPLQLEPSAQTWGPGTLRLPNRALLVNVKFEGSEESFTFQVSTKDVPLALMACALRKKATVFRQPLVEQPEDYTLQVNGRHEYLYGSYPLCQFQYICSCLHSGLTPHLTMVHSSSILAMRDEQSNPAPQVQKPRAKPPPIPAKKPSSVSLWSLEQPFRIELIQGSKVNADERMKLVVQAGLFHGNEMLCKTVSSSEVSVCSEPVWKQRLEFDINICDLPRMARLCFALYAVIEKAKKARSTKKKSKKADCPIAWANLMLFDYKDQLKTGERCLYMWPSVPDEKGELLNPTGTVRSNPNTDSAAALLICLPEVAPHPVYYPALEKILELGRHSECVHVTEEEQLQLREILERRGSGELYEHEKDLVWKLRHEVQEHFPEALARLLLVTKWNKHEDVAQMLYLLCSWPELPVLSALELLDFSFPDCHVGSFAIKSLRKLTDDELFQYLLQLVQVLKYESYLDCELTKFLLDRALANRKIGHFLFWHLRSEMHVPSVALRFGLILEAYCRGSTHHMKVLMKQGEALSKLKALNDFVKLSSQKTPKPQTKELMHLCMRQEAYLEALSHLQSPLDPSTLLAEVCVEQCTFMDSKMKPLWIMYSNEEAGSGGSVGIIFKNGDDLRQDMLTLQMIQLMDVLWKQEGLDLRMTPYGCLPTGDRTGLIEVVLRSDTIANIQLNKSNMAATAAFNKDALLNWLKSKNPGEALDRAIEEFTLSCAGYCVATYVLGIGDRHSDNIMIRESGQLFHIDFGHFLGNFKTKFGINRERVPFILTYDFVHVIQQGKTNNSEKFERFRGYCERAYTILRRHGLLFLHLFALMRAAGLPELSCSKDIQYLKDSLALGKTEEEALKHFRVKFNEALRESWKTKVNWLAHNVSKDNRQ
# Chain of PI3Kδ (P27986 whole entry partner): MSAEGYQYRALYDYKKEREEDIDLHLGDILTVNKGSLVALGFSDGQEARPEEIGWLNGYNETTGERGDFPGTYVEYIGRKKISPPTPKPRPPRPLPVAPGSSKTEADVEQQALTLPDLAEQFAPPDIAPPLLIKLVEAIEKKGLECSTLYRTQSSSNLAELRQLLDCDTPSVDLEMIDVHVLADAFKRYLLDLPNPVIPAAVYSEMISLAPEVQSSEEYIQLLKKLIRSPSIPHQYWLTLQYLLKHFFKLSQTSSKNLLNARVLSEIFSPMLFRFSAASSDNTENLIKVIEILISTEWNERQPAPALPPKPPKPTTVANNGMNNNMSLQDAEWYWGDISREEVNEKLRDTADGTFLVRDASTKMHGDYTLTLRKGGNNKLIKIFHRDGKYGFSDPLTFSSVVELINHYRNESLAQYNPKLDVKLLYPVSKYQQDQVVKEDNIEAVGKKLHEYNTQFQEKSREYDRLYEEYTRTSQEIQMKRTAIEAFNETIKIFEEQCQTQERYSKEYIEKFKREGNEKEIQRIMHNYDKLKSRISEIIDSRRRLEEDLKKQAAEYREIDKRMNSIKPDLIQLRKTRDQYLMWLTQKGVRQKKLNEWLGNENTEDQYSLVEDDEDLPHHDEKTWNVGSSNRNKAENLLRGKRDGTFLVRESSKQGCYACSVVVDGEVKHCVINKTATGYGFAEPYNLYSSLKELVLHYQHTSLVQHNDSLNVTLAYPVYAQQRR
row,SMILES,IC50 [nM]
1,"CCC1CN(CCO)Cc2c(C#N)c(Cl)cc(C(C)n3nc(C)c4c(N)ncnc43)c2O1 (single isomer, unassigned) [Example 69, 9-[1-(4-Amino-3-methyl-1H-pyrazolo[3,4-d]pyrimidin-1-yl)ethyl]-7-chloro-2-ethyl-4-(2-hydroxyethyl)-2,3,4,5-tetrahydro-1,4-benzoxazepine-6-carbonitrile]",≤ 100
2,"CCC1CN(CCO)Cc2c(C#N)c(Cl)cc(C(C)n3nc(C)c4c(N)ncnc43)c2O1 (single isomer, unassigned) [Example 70, 9-[1-(4-Amino-3-methyl-1H-pyrazolo[3,4-d]pyrimidin-1-yl)ethyl]-7-chloro-2-ethyl-4-(2-hydroxyethyl)-2,3,4,5-tetrahydro-1,4-benzoxazepine-6-carbonitrile]",≤ 100
3,"CC(=O)N1CC(N2Cc3c(F)c(Cl)cc(C(C)n4nc(C)c5c(N)ncnc54)c3OC(C)C2=O)C1 (single isomer, unassigned) [Example 72, 4-(1-Acetylazetidin-3-yl)-9-[1-(4-amino-3-methyl-1H-pyrazolo[3,4-d]pyrimidin-1-yl)ethyl]-7-chloro-6-fluoro-2-methyl-4,5-dihydro-1,4-benzoxazepin-3(2H)-one]",100 to 500
4,"Cc1nn(C(C)c2cc(Cl)c(F)c3c2OC(C)CN(C[C@@H](C)O)C3)c2ncnc(N)c12 (single isomer, unassigned) [Example 77]",≤ 100
5,"Cc1nn(C(C)c2cc(Cl)c(F)c3c2OC(C)CN(C[C@@H](C)O)C3)c2ncnc(N)c12 (single isomer, unassigned) [Example 78]",≤ 100
6,"Cc1nn(C(C)c2cc(Cl)c(C#N)c3c2OC(C)CN(C2CN(S(C)(=O)=O)C2)C3)c2ncnc(N)c12 (single isomer, unassigned) [Example 93, 9-[1-(4-amino-3-methyl-1H-pyrazolo[3,4-d]pyrimidin-1-yl)ethyl]-7-chloro-2-methyl-4-[1-(methylsulfonyl)azetidin-3-yl]-2,3,4,5-tetrahydro-1,4-benzoxazepine-6-carbonitrile]",≤ 100
7,"Cc1nn(C(C)c2cc(Cl)c(C#N)c3c2OC(C)CN(C2CN(S(C)(=O)=O)C2)C3)c2ncnc(N)c12 (single isomer, unassigned) [Example 94, 9-[1-(4-amino-3-methyl-1H-pyrazolo[3,4-d]pyrimidin-1-yl)ethyl]-7-chloro-2-methyl-4-[1-(methylsulfonyl)azetidin-3-yl]-2,3,4,5-tetrahydro-1,4-benzoxazepine-6-carbonitrile]",≤ 100
8,"Cc1nn(C(C)c2cc(Cl)c(C#N)c3c2OC(C)CN(C2CN(C(=O)NC(C)C)C2)C3)c2ncnc(N)c12 (single isomer, unassigned) [Example 101, 3-[9-[1-(4-amino-3-methyl-1H-pyrazolo[3,4-d]pyrimidin-1-yl)ethyl]-7-chloro-6-cyano-2-methyl-2,3-dihydro-1,4-benzoxazepin-4(5H)-yl]-N-isopropylazetidine-1-carboxamide]",≤ 100
9,"Cc1nn(C(C)c2cc(Cl)c(C#N)c3c2OC(C)CN(C2CN(CCO)C2)C3)c2ncnc(N)c12 (single isomer, unassigned) [Example 103, 9-[1-(4-amino-3-methyl-1H-pyrazolo[3,4-d]pyrimidin-1-yl)ethyl]-7-chloro-4-[1-(2-hydroxyethyl)azetidin-3-yl]-2-methyl-2,3,4,5-tetrahydro-1,4-benzoxazepine-6-carbonitrile]",≤ 100
10,"Cc1nn(C(C)c2cc(Cl)c(C#N)c3c2OC(C)CN(C2CN(CCO)C2)C3)c2ncnc(N)c12 (single isomer, unassigned) [Example 104, 9-[1-(4-amino-3-methyl-1H-pyrazolo[3,4-d]pyrimidin-1-yl)ethyl]-7-chloro-4-[1-(2-hydroxyethyl)azetidin-3-yl]-2-methyl-2,3,4,5-tetrahydro-1,4-benzoxazepine-6-carbonitrile]",≤ 100

# Other lines, results leading:
row,IC50 [nM],SMILES
1,≤ 100,"COC(=O)N1CC(N2Cc3c(F)c(Cl)cc(C(C)n4nc(C)c5c(N)ncnc54)c3OC(C)C2)C1 (single isomer, unassigned) [Example 80, methyl 3-[9-[1-(4-amino-3-methyl-1H-pyrazolo[3,4-d]pyrimidin-1-yl)ethyl]-7-chloro-6-fluoro-2-methyl-2,3-dihydro-1,4-benzoxazepin-4(5H)-yl]azetidine-1-carboxylate]"
2,≤ 100,"Cc1nn(C(C)c2cc(Cl)c(F)c3c2OC(C)CN(C2CN(S(N)(=O)=O)C2)C3)c2ncnc(N)c12 (single isomer, unassigned) [Example 81, 3-[9-[1-(4-amino-3-methyl-1H-pyrazolo[3,4-d]pyrimidin-1-yl)ethyl]-7-chloro-6-fluoro-2-methyl-2,3-dihydro-1,4-benzoxazepin-4(5H)-yl]azetidine-1-sulfonamide]"
3,≤ 100,"Cc1nn(C(C)c2cc(Cl)c(F)c3c2OC(C)CN(C2CN(C(N)=O)C2)C3)c2ncnc(N)c12 (single isomer, unassigned) [Example 83, 3-[9-[1-(4-amino-3-methyl-1H-pyrazolo[3,4-d]pyrimidin-1-yl)ethyl]-7-chloro-6-fluoro-2-methyl-2,3-dihydro-1,4-benzoxazepin-4(5H)-yl]azetidine-1-carboxamide]"
4,≤ 100,"Cc1nn(C(C)c2cc(Cl)c(F)c3c2OC(C)CN(C2CN(C(N)=O)C2)C3)c2ncnc(N)c12 (single isomer, unassigned) [Example 84, 3-[9-[1-(4-amino-3-methyl-1H-pyrazolo[3,4-d]pyrimidin-1-yl)ethyl]-7-chloro-6-fluoro-2-methyl-2,3-dihydro-1,4-benzoxazepin-4(5H)-yl]azetidine-1-carboxamide]"
5,100 to 500,"Cc1nn(C(C)c2cc(Cl)c(F)c3c2O[C@@H](C)CN(C2CN(CC(N)=O)C2)C3)c2ncnc(N)c12 (single isomer, unassigned) [Example 87]"
6,≤ 100,"Cc1nn(C(C)c2cc(Cl)c(F)c3c2O[C@@H](C)CN(C2CN(CC(N)=O)C2)C3)c2ncnc(N)c12 (single isomer, unassigned) [Example 88]"
7,≤ 100,"CCC(=O)N1CC(N2Cc3c(C#N)c(Cl)cc(C(C)n4nc(C)c5c(N)ncnc54)c3OC(C)C2)C1 (single isomer, unassigned) [Example 95, 9-[1-(4-amino-3-methyl-1H-pyrazolo[3,4-d]pyrimidin-1-yl)ethyl]-7-chloro-2-methyl-4-(1-propionylazetidin-3-yl)-2,3,4,5-tetrahydro-1,4-benzoxazepine-6-carbonitrile]"
8,≤ 100,"CCNC(=O)N1CC(N2Cc3c(C#N)c(Cl)cc(C(C)n4nc(C)c5c(N)ncnc54)c3OC(C)C2)C1 (single isomer, unassigned) [Example 97, 3-[9-[1-(4-amino-3-methyl-1H-pyrazolo[3,4-d]pyrimidin-1-yl)ethyl]-7-chloro-6-cyano-2-methyl-2,3-dihydro-1,4-benzoxazepin-4(5H)-yl]-N-ethylazetidine-1-carboxamide]"
9,≤ 100,"CCNC(=O)N1CC(N2Cc3c(C#N)c(Cl)cc(C(C)n4nc(C)c5c(N)ncnc54)c3OC(C)C2)C1 (single isomer, unassigned) [Example 98, 3-[9-[1-(4-amino-3-methyl-1H-pyrazolo[3,4-d]pyrimidin-1-yl)ethyl]-7-chloro-6-cyano-2-methyl-2,3-dihydro-1,4-benzoxazepin-4(5H)-yl]-N-ethylazetidine-1-carboxamide]"
10,≤ 100,"CCOC(=O)N1CC(N2Cc3c(C#N)c(Cl)cc(C(C)n4nc(C)c5c(N)ncnc54)c3OC(C)C2)C1 (single isomer, unassigned) [Example 99, ethyl 3-[9-[1-(4-amino-3-methyl-1H-pyrazolo[3,4-d]pyrimidin-1-yl)ethyl]-7-chloro-6-cyano-2-methyl-2,3-dihydro-1,4-benzoxazepin-4(5H)-yl]azetidine-1-carboxylate]"
11,≤ 100,"CCOC(=O)N1CC(N2Cc3c(C#N)c(Cl)cc(C(C)n4nc(C)c5c(N)ncnc54)c3OC(C)C2)C1 (single isomer, unassigned) [Example 100, ethyl 3-[9-[1-(4-amino-3-methyl-1H-pyrazolo[3,4-d]pyrimidin-1-yl)ethyl]-7-chloro-6-cyano-2-methyl-2,3-dihydro-1,4-benzoxazepin-4(5H)-yl]azetidine-1-carboxylate]"
12,≤ 100,"Cc1nn(C(C)c2cc(Cl)c(C#N)c3c2OC(C)CN(C2CN(C(=O)NC(C)C)C2)C3)c2ncnc(N)c12 (single isomer, unassigned) [Example 102, 3-[9-[1-(4-amino-3-methyl-1H-pyrazolo[3,4-d]pyrimidin-1-yl)ethyl]-7-chloro-6-cyano-2-methyl-2,3-dihydro-1,4-benzoxazepin-4(5H)-yl]-N-isopropylazetidine-1-carboxamide]"

# — US9944646B2, “Bicyclic azaheterocyclobenzylamines as PI3K inhibitors” (Incyte Corporation, priority 2012, dated 2018)
